Experimental data: patent publication US20130053337A1, “GUANIDINYLATED AMINOGLYCOSIDE-LIPID CONJUGATES” (UNIVERSITY OF MANITOBA, priority 2010, published 2013)
Values after ≈ are worked out from the molar mass of the structure shown. Read-outs that look alike come from different tables or passages of the source.

Tests used:
MRSE CAN-ICU 61589 = assay: MIC, broth macrodilution (CLSI); assay type: cell-based, methicillin-resistant Staphylococcus epidermidis
Method: (§1) All experiments were performed in duplicate.
(§2) Bacterial isolates studied included both reference strains obtained from the American Type Culture Collection (ATCC) as well as clinical strains obtained from the CAN-ICU study which was a national surveillance study assessing the prevalence of antimicrobial resistant pathogens in Canadian intensive care units (Zhanel et al., 2008). Isolates were kept frozen in skim milk at −80° C. until minimum inhibitory concentration (MIC) testing was carried out. Following two subcultures from frozen stock, the in vitro activities of peptides were determined by macrobroth dilution in accordance with the Clinical and Laboratory Standards Institute (CLSI) 2006 guidelines (Zhanel et al., 2008). Stock solutions of peptides were prepared and dilutions made as described by CLSI. Test tubes contained doubling antimicrobial dilutions of cation adjusted Mueller-Hinton broth and inoculated to achieve a final concentration of approximately 5×10^5 cfu/ml then incubated in ambient air for 24 hours prior to reading. Colony counts were performed periodically to confirm inocula. Quality control was regularly performed using ATCC QC organisms.

S. aureus ATCC 29213 = assay: MIC, broth macrodilution (CLSI); assay type: cell-based, Staphylococcus aureus; conditions: S. aureus ATCC29213
Method: as §1, §2

[1] = system: S. epidermidis ATCC 14990; assay: MIC, broth macrodilution (CLSI); assay type: cell-based, Staphylococcus epidermidis; conditions: S. epidermidis ATCC14990
Method: as §1, §2

S. pneumoniae ATCC 49619 = assay: MIC, broth macrodilution (CLSI), broth with 5% laked horse blood; assay type: cell-based, Streptococcus pneumoniae; conditions: S. pneumoniae ATCC49619
Method: as §1, §2

MRSA ATCC 33592 = assay: MIC, broth macrodilution (CLSI); assay type: cell-based, methicillin-resistant Staphylococcus aureus; conditions: MRSA ATCC33592
Method: as §1, §2

[2] = system: E. coli (amikacin MIC 32 mg/L) CAN-ICU 63074; assay: MIC, broth macrodilution (CLSI); assay type: cell-based; conditions: E. coli CAN-ICU 63074
Method: as §1, §2

[3] = system: P. aeruginosa (gentamicin-resistant) CAN-ICU 62308; assay: MIC, broth macrodilution (CLSI); assay type: cell-based; conditions: P. aeruginosa CAN-ICU 62308
Method: as §1, §2

[4] = system: E. coli (gentamicin-resistant) CAN-ICU 61714; assay: MIC, broth macrodilution (CLSI); assay type: cell-based; conditions: E. coli CAN-ICU 61714
Method: as §1, §2

E. coli ATCC 25922 = assay: MIC, broth macrodilution (CLSI); assay type: cell-based; conditions: E. coli ATCC25922
Method: as §1, §2

P. aeruginosa ATCC 27853 = assay: MIC, broth macrodilution (CLSI); assay type: cell-based; conditions: P. aeruginosa ATCC27853
Method: as §1, §2

[5] = system: sheep red blood cell (erythrocytes); assay: Hemolytic assay (in vitro toxicity)
Method: Antibacterial activity against Gram-positive and Gram-negative microorganisms was tested via broth macrodilution tests using CLSI methodology (Zhanel et al., 2008). Stock solutions of cationic lipids in water were brought to a concentration of 512 mg/L. Organisms were subcultured and isolated on blood agar, suspended in 3 mL of Mueller-Hinton broth at the turbidity of a […], and diluted to approximately 10^5 cfu/mL before introduction into tubes containing serially diluted lipopeptide antibiotic in Mueller-Hinton broth. Activity testing against S. pneumoniae used broth supplemented with laked horse blood to give 5% horse blood in experimental tubes. Turbidity of lipopeptide solution in broth required creation of control tubes lacking organisms serving as turbidity controls. All tubes were incubated overnight for 16-20 h at 37° C. […] All experiments were performed in duplicate. In-vitro toxicity was determined using a sheep red blood cell hemolytic assay as previously described (Dathe et al., 1996).
In vitro toxicity was determined using a sheep red blood cell (erythrocytes) hemolytic assay (Dathe et al., 1996). […] Erythrocytes were washed and resuspended in Tris buffered saline. The cell suspension was combined with varying concentrations (low to very high) of test and control antimicrobials (e.g., aminoglycosides and APTCs). The samples were centrifuged and the absorbance of the supernatants measured at 540 nm. Tris buffered saline and Triton X were used as negative and positive controls, respectively. The toxicity was assessed by percent hemolysis.

E. faecium ATCC 27270 = assay: MIC, broth macrodilution (CLSI); assay type: cell-based, Enterococcus faecium; conditions: E. facium ATCC27270
Method: as §1, §2

E. faecalis ATCC 29212 = assay: MIC, broth macrodilution (CLSI); assay type: cell-based, Enterococcus faecalis; conditions: E. faecalis ATCC29212
Method: as §1, §2

[6] = 100 mg/L, sheep erythrocytes, percent hemolysis

| Compound | MIC (MRSE CAN-ICU 61589) [µg/mL] | MIC (S. aureus ATCC 29213) [µg/mL] | MIC [1] [µg/mL] | MIC (S. pneumoniae ATCC 49619) [µg/mL] | MIC (MRSA ATCC 33592) [µg/mL] | MIC [2] [µg/mL] | MIC [3] [µg/mL] | MIC [4] [µg/mL] | MIC (E. coli ATCC 25922) [µg/mL] | MIC (P. aeruginosa ATCC 27853) [µg/mL] | hemolytic activity at 100 mg/L [5, 6] [%] | MIC (E. faecium ATCC 27270) [µg/mL] | MIC (E. faecalis ATCC 29212) [µg/mL] | hemolytic activity at 100 mg/L [5] [%] | hemolytic activity compared to polyamine analogs 3 and 15 [5] |
| --- | --- | --- | --- | --- | --- | --- | --- | --- | --- | --- | --- | --- | --- | --- | --- |
| CCCCCCCCCCCC(=O)NC[C@H]1O[C@@H](O[C@@H]2[C@@H](O)[C@H](N)C[C@H](N)[C@H]2O[C@H]2O[C@H](CN)[C@@H](O)[C@H](O)[C@H]2N)[C@H](O)[C@@H]1O[C@H]1O[C@@H](CN)[C@@H](O)[C@H](O)[C@H]1N.O=C(O)C(F)(F)F.O=C(O)C(F)(F)F.O=C(O)C(F)(F)F.O=C(O)C(F)(F)F.O=C(O)C(F)(F)F.O=C(O)C(F)(F)F [Compound 2] | 8 | 32 | 4 | 128 | >256 | 128 | 256 | 64 | 64 | 256 |  |  |  |  |  |
| CCCCCCCCCCCCCCCC(=O)NCC1OC(OC2C(NC(=N)N)CC(NC(=N)N)C(OC3OC(CNC(=N)N)C(O)C(O)C3O)C2O)C(O)C(NC(=N)N)C1O.O=C(O)C(F)(F)F.O=C(O)C(F)(F)F.O=C(O)C(F)(F)F.O=C(O)C(F)(F)F (centres unmarked) [Compound 16, 1,3,6′,3″-Tetraammonium-guanidinyl-6″-deoxy-6″-N-(hexadecanoyl)-kanamycin-tetrakis-(trifluoroacetate)] | 8 | 16 | 8 | 128 | 8 | 64 | 64 | 128 | 64 | 256 | 6.7 | 16 | 16 |  |  |
| CCCCCCCCCCCCCCCC(=O)NC[C@H]1O[C@@H](O[C@@H]2[C@@H](O)[C@H](N)C[C@H](N)[C@H]2O[C@H]2O[C@H](CN)[C@@H](O)[C@H](O)[C@H]2N)[C@H](O)[C@@H]1O[C@H]1O[C@@H](CN)[C@@H](O)[C@H](O)[C@H]1N.O=C(O)C(F)(F)F.O=C(O)C(F)(F)F.O=C(O)C(F)(F)F.O=C(O)C(F)(F)F.O=C(O)C(F)(F)F.O=C(O)C(F)(F)F [Compound 3] | 2 | 4 | 2 | 64 | 8 |  | 128 | 64 | 32 | 128 |  |  |  | 56 |  |
| NC[C@@H]1O[C@H](O[C@H]2[C@@H](O)[C@H](O[C@@H]3[C@@H](O)[C@H](N)C[C@H](N)[C@H]3O[C@H]3O[C@H](CN)[C@@H](O)[C@H](O)[C@H]3N)O[C@@H]2CNC(=O)CCCc2ccc3ccc4cccc5ccc2c3c45)[C@H](N)[C@@H](O)[C@@H]1O.O=C(O)C(F)(F)F.O=C(O)C(F)(F)F.O=C(O)C(F)(F)F.O=C(O)C(F)(F)F.O=C(O)C(F)(F)F.O=C(O)C(F)(F)F [Compound 6] | 64 | 16 | 2 | >512 | 256 | 64 | 256 | 64 | 32 | >512 |  |  |  |  |  |
| NC[C@H]1O[C@H](O[C@H]2[C@H](O)[C@@H](O[C@H]3O[C@H](CO)[C@@H](O)[C@H](N)[C@H]3O)[C@H](N)C[C@@H]2N)[C@H](O)[C@@H](O)[C@@H]1O [Kanamycin A, reference compound] | 128 (≈ 264 µM) | 4 (≈ 8.26 µM) | 2 (≈ 4.13 µM) | 8 (≈ 16.5 µM) | >512 | 32 (≈ 66 µM) | >512 | 16 (≈ 33 µM) | 8 (≈ 16.5 µM) | >512 | <0.4 |  |  |  |  |
| CC(C)c1cc(C(C)C)c(S(=O)(=O)OCC2OC(OC3C(NC(=O)OC(C)(C)C)CC(NC(=O)OC(C)(C)C)C(OC4OC(CNC(=O)OC(C)(C)C)C(O)C(O)C4O)C3O)C(O)C(NC(=O)OC(C)(C)C)C2O)c(C(C)C)c1 (centres unmarked) [Compound 17, 6″-(2,4,6-Triisopropylbenzenesulfonyl)-1,3,6′,3″-tetra-N-(tert-butoxycarbonyl)kanamycin A] |  |  |  |  |  |  |  |  |  |  |  |  |  |  | reduced hemolytic activity |
| CCCCCCCCCCCCCCCCCCCC(=O)NC[C@H]1O[C@@H](O[C@@H]2[C@@H](O)[C@H](N)C[C@H](N)[C@H]2O[C@H]2O[C@H](CN)[C@@H](O)[C@H](O)[C@H]2N)[C@H](O)[C@@H]1O[C@H]1O[C@@H](CN)[C@@H](O)[C@H](O)[C@H]1N.O=C(O)C(F)(F)F.O=C(O)C(F)(F)F.O=C(O)C(F)(F)F.O=C(O)C(F)(F)F.O=C(O)C(F)(F)F.O=C(O)C(F)(F)F [Compound 4] | 4 | 8 | 4 | 64 | 8 | 64 | 64 | 128 | 128 | 128 |  |  |  | 82 |  |
| CCCCCC(=O)NCC1OC(OC2C(O)C(NC(=N)N)CC(NC(=N)N)C2OC2OC(CNC(=N)N)C(O)C(O)C2NC(=N)N)C(O)C1OC1OC(CNC(=N)N)C(O)C(O)C1NC(=N)N.O=C(O)C(F)(F)F.O=C(O)C(F)(F)F.O=C(O)C(F)(F)F.O=C(O)C(F)(F)F.O=C(O)C(F)(F)F.O=C(O)C(F)(F)F (centres unmarked) [Compound 8, 1,3,2′,6′,2′″,6′″-Hexaammonium-guanidinyl-5″-deoxy-5″-N-(hexanoyl)-neomycin hexakis(trifluoroacetate)] | 64 | 128 | 64 | >128 |  |  |  |  | 128 |  |  | 256 |  |  |  |
| C[C@H](CCC(=O)NC[C@H]1O[C@@H](O[C@@H]2[C@@H](O)[C@H](N)C[C@H](N)[C@H]2O[C@H]2O[C@H](CN)[C@@H](O)[C@H](O)[C@H]2N)[C@H](O)[C@@H]1O[C@H]1O[C@@H](CN)[C@@H](O)[C@H](O)[C@H]1N)[C@H]1CC[C@H]2[C@@H]3[C@H](O)C[C@@H]4C[C@H](O)CC[C@]4(C)[C@H]3C[C@H](O)[C@]12C.O=C(O)C(F)(F)F.O=C(O)C(F)(F)F.O=C(O)C(F)(F)F.O=C(O)C(F)(F)F.O=C(O)C(F)(F)F.O=C(O)C(F)(F)F [Compound 7] | 16 | 16 | 8 | >256 | 128 | 64 | 128 | 64 | 32 | >256 |  |  |  |  |  |
| CCCCC/C=C\C/C=C\CCCCCCCC(=O)NC[C@H]1O[C@@H](O[C@@H]2[C@@H](O)[C@H](N)C[C@H](N)[C@H]2O[C@H]2O[C@H](CN)[C@@H](O)[C@H](O)[C@H]2N)[C@H](O)[C@@H]1O[C@H]1O[C@@H](CN)[C@@H](O)[C@H](O)[C@H]1N.O=C(O)C(F)(F)F.O=C(O)C(F)(F)F.O=C(O)C(F)(F)F.O=C(O)C(F)(F)F.O=C(O)C(F)(F)F.O=C(O)C(F)(F)F [Compound 5] | 4 | 16 | 4 | 128 | 32 | 128 | 128 | 64 | 128 | 256 |  |  |  |  |  |
